Source: patent US9040691B2, “Hydroxymethylaryl-substituted pyrrolotriazines as ALK1 inhibitors” (BAYER INTELLECTUAL PROPERTY GMBH, priority 2011, dated 2015)

Tests used:
[1] = tested on: hSmad7 mRNA in BMP9-stimulated HMVEC; test: Smad7 target gene induction: HMVEC cell assay and TaqMan expression analysis; format: cell-based; conditions: Homo sapiens, hBMP9 stimulation, Smad7 mRNA by TaqMan
Experimental: B-2a. Smad7 Target Gene Induction: HMVEC Cell Assay and TaqMan Expression Analysis
Activation of ALK1 receptors by BMP9 induces the Smad1/5 signalling pathway and enhances expression of target genes Smad6, Smad7 and Id-1. Induction of Smad7-mRNA in BMP9-stimulated endothelial cells was determined to monitor the cellular potency of ALK1 kinase inhibitors.
Human microvascular endothelial cells (IIMVECadult, Cell Systems, St. Katharinen) were seeded in complete ENGS MV medium with all supplements (LifeLine Cell Technology) in 96 well plates with 10 000 cells per well. After 4 h incubation at 37° C. and 7.5% CO2 in a humidified incubator, medium was replaced with minimal medium (ENGS MV without supplements containing 0.02% FCS). After 16 h, test compounds or medium (controls) were added to the cultures, followed 30 min later by addition of hBMP9 (R&D Systems). Medium was removed 1 to 4 h later, plates were gently washed with phosphate-buffered saline, and cells were lysed with 150 μl per well of ice-cold RLT buffer (Qiagen).
Total cellular RNA was isolated with the Trizol® reagent protocol according to the manufacturer's specifications (Invitrogen, USA) and treated with DNAseI to remove genomic DNA contamination.
For relative quantitation of the mRNA distribution of hSmad7, total RNA from each sample was first reverse-transcribed using the ImProm-II Reverse Transcription System (Promega, USA) according to the manufacturer's protocol. The final volume was adjusted to 200 μl with water.
For relative quantitation of selected mRNA, the Applied Bioscience ABI 7900HT Sequence Detection System was used according to the manufacturer's specifications and protocols. PCR reactions were set up to quantitate hSmad7- and the housekeeping gene L32-mRNA. Forward and reverse primers and probes for hSmad7 and L32 were designed using the Applied Bioscience ABI Primer Expressim software and were synthesized by Eurogentec (Belgium). The hSmad7 forward primer sequence was: Primer 1 (SEQ ID NO 1). The hSmad7 reverse primer sequence was: Primer 2 (SEQ ID NO 2). Probe 1 (SEQ ID NO 3), labelled with FAM as the reporter dye and TAMRA as the quencher, was used as a probe for hSmad7. The L32 forward primer sequence was: Primer 3 (SEQ ID NO 4). The L32 reverse primer sequence was: Primer 4 (SEQ ID NO 5). Probe 2 (SEQ ID NO 6), labelled with FAM as the reporter dye and TAMRA as the quencher, was used as a probe for L32.
The following reagents were prepared in a total of 20 μl added per well: 1× qPCR-MasterMix (Eurogentec, Belgium) and hSmad7 forward and reverse primers each at 200 nM, 200 nM hSmad7 FAM/TAMRA-labelled probe 1 (SEQ ID NO 3), and 5 μl of template cDNA. Correspondingly, a second mix in a total of 20 μl was prepared using L32 FAM/TAMRA-labelled probe 2 (SEQ ID NO 6) and L32 forward and reverse primers added per well in parallel samples.
Thermal cycling parameters were 2 min at 50° C., followed by 10 min at 95° C., followed by 40 cycles of melting at 95° C. for 15 sec and annealing/extending at 60° C. for 1 min.
Calculation of Relative Expression:
The Ct (cycle threshold) values were calculated from the turning point of PCR product quantity curves by the ΔΔCt method (delta-delta Ct): ΔCt=CthSmad7−CtL32; relative expression=2^(15-ΔCt).
IC50 values of test compounds were calculated on basis of relative Smad7 expressions at different compound concentrations.

[2] = tested on: hSmad7 mRNA in BMP9-stimulated HUVEC; test: Smad7 target gene induction: HUVEC cell assay and TaqMan expression analysis; format: cell-based, human; conditions: 1 ng/ml BMP9 for 3 h, Smad7 mRNA by TaqMan
Experimental: B-2b. Smad7 Target Gene Induction: HUVEC Cell Assay and TaqMan Expression Analysis
The in vitro potency of ALK1 inhibitors was tested in a cell-based assay. Bone morphogenetic protein 9 (BMP9) induces Smad7 mRNA expression in human vascular endothelial cells (HUVEC) via activation of ALK1.
1.5×10^4 passage 2 HUVECs (Lonza, Basel, Switzerland) per well were seeded in a 96-well plate in EBM-2 medium containing EGM-2 additives and growth factors (Lonza, CC-3156 and CC-4176). After 4 h, the medium was changed to EBM-2 with 0.2% fetal calf serum (FCS) and the cells were starved for 20 h in a humidified incubator at 37° C., 5% CO2. Test compounds were added at 11 different concentrations between 0 and 10 000 nM one hour prior to stimulation of the cells for 3 h with recombinant human BMP9 protein at 1 ng/ml (dissolved in 4 mM hydrochloric acid, 0.1% BSA at 10 μg/ml; R&D Systems, Minneapolis, Minn., USA, 3209BP). Medium was removed, and the cells were lysed in 100 μl RLT buffer (Qiagen, Hilden, Germany). RNA was isolated using the Qiagen RNeasy 96 Kit (order-No. 74182) according to manufacturer's instructions and eluted from the columns with 65 μl RNAse-free water. Reverse transcription for quantitative RT-PCR was carried out with the Omniscript Kit (Qiagen, 205113) in RNAse-free 96-well round-bottom plates. Per well, 6.8 μl of a reaction master mix containing 2 μl 10×RT-buffer, 2 μl dNTPs (5 mM each), 1.6 μl random primer N6 (125 μM), 0.25 μl Rnase Out (40 U/μl) and 1 μl Omniscript Reverse Transcriptase were added. After addition of 13.2 μl of the RNA/water mixture, plate contents were mixed, incubated for 1 h at 37° C. and the total volume adjusted to 100 μl in each well by addition of 80 μl RNAse-free water.
The quantification of human Smad7 mRNA was carried out on a TaqMan using the Eurogentec qPCR Mastermix Plus (RT-QP2X-03-075+; Cologne, Germany) and employing human L32 as housekeeping reference mRNA. Per qPCR reaction, 2.8 μl primer mix, 10 μl master mix, 2.2 μl water and 5 μl cDNA were added. Thermal cycling parameters were 2 min at 50° C., followed by 10 min at 95° C., followed by 40 cycles of melting at 95° C. for 15 sec and annealing/extending at 60° C. for 1 min.
Smad7 mRNA levels induced by 1 ng/ml BMP9 without the addition of any inhibitor were set at 100% induction, and % inhibition was calculated for each test compound with this value. For each test compound, every value was determined in quadruplicate. The IC50 values were determined using Microsoft Excel. The fitting method used was a weighted, unconstrained ML-fit.

[3] = target: ALK1 kinase (Homo sapiens (Human), UniProt P37023); test: In vitro enzyme inhibition using scintillation of incorporated radio label (flashplate assay); format: biochemical; conditions: biotinylated α-casein, 33P-ATP, 500 nM ATP
Sequence of ALK1 kinase (P37023 22-503): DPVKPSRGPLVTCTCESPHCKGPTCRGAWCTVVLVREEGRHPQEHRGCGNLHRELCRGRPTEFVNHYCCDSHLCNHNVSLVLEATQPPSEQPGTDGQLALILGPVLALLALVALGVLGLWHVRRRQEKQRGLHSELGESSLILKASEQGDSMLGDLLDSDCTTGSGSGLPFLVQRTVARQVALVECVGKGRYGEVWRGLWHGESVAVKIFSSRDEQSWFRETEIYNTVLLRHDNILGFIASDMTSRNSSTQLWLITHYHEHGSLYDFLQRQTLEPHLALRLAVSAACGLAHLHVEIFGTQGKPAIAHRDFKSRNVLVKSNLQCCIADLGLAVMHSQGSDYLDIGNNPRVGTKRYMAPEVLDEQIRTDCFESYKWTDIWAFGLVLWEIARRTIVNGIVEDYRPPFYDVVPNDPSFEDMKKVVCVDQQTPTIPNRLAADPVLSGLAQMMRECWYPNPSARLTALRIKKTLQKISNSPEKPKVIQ
Experimental: B-1a. In Vitro Enzyme Inhibition Using Scintillation of Incorporated Radio Label (Flashplate Assay)
Test compounds diluted in DMSO are mixed with a suitable substrate/co-substrate (here: biotinylated α-casein and ^33P-ATP) in a corresponding assay buffer. Addition of the enzyme of interest (here: ALK1 kinase) starts the enzyme reaction. The enzyme-catalyzed incorporation of radio label into the substrate is measured via scintillation. Incorporated radio label is separated from free radio label via specific binding of the biotinylated substrate to strepavidin-coated microtiter plates (flashplates) and concomitant washing steps. The scintillation signal intensity (counts per minutes, cpm) is proportional to the enzyme activity. Enzyme inhibition results in a decreased signal intensity. IC50 values of the test compounds are determined by cpm-versus-[I] plots.
Reaction buffer contains 50 mM Tris pH 8.0 (Sigma), 1 mM MnCl2 (Sigma), 0.01% Nonidet P40 (Fluka), 0.5× Complete EDTA-free protease inhibitors (Roche; contains a mixture of several protease inhibitors for the inhibition of serine and cysteine (but not metallo-) proteases; 1 tablet contains protease inhibitors sufficient for a 50 ml cell extract; the concentration used in this assay corresponds to 1 tablet in 100 ml).
• 1.) Stop solution: Dulbecco's PBS (PAA, Pasching, Austria), 25 mM EDTA (Sigma), 25 μM ATP (Roche), 0.05% Triton X-100 (Sigma); • 2.) Saturation buffer: Dulbecco's PBS (PAA, Pasching, Austria), 100 μM ATP (Roche), 0.2% Triton X-100 (Sigma); • 3.) Wash buffer: Dulbecco's PBS (PAA, Pasching, Austria). Enzyme Solution:
ALK1 (Invitrogen, Paisley, United Kingdom) stock solution (35.7 ng/μl) is diluted to 4 ng/μl; final concentration in the reaction is 1 ng/μl.
Dephosphorylated α-casein (Sigma) is biotinylated according to the manufacturer's protocol (Pierce, Bonn, Germany) resulting in a stock solution of 61.6 μM. Briefly, EZ-Link® Biotin reagent (sulfosuccinimidyl-6-(biotinamido)hexanoate; Pierce, Bonn, Germany) is added in equal molarity to α-casein and incubated on ice for 2 h. Afterwards, the biotin reagent is removed by dialysis (2×2 h and overnight).
A 100 mM solution of cold (unlabelled) ATP (Roche) is diluted 1:100 before each test. For the substrate mix, α-casein is diluted to 2.22 μM resulting in a final concentration of 1 μM α-casein in the reaction. Additionally, cold ATP is added to give a 1.11 μM solution which results in a final concentration of 500 nM in the reaction.
Radioactive ATP Solution:
The stock solution (9.25 MBq/25 μl of ^33P-ATP; Perkin Elmer, Rodgau, Germany) is diluted to 651.2 Bq/μl.
Compounds are dissolved in 100% DMSO (10 mM stock solution) and diluted to 2 mM. Further dilutions are made stepwise 1:3.16 in DMSO.
A volume of 9 μl substrate solution is provided into each well of a 384 well microliter plate (Greiner Bio-One, Solingen, Germany), 1 μl compound solution and 5 μl of the radioactive ATP solution are added. Enzyme reaction starts with addition of 5 μl of enzyme solution. The mixture is incubated for 60 minutes at room temperature and then stopped by addition of 10 μl stop solution. The 384 well microliter flashplates (Perkin Elmer, Rodgau, Germany) are saturated with 50 μl saturation buffer per well for at least 60 minutes. Subsequently, a volume of 20 μl is discarded and replaced with 20 μl of the stopped ALK1 reaction mixture. Binding of biotinylated substrate to the flashplate is allowed for by overnight incubation at room temperature. Bound substrate is separated from unbound components through repeated washing steps (3×50 μl washing buffer per well). Finally, 50 μl washing buffer is added, and the scintillation signal (cpm) is measured in a suitable counter (Perkin Elmer, Rodgau, Germany).

| IC50 [1] [nM] | IC50 [3] [nM] | Compound | IC50 ([2]; Homo sapiens, 3 h) [nM] | IC50 [2] [nM] |
| --- | --- | --- | --- | --- |
| 60 |  | Nc1ncnn2c(C3CCNC3)cc(-c3cc(F)c(CO)c(F)c3)c12 (racemic) [Example 8, rac-{4-[4-Amino-7-(pyrrolidin-3-yl)pyrrolo[2,1-f][1,2,4]triazin-5-yl]-2,6-difluorophenyl}methanol] |  |  |
|  | 3.2 | COc1cc(-c2cc(C(O)C3CC3)n3ncnc(N)c23)ccc1CO (racemic) [Example 40, rac-{4-Amino-5-[4-(hydroxymethyl)-3-methoxyphenyl]pyrrolo[2,1-f][1,2,4]triazin-7-yl}(cyclopropyl)methanol] | 62 |  |
|  | 3.5 | COc1cc(-c2cc(C(O)C3CC3)n3ncnc(N)c23)ccc1CO (single isomer, unassigned; ent-4) [Example 41, ent-4-Amino-5-[4-(hydroxymethyl)-3-methoxyphenyl]pyrrolo[2,1-f][1,2,4]triazin-7-yl}(cyclopropyl)methanol (enantiomer 1)] |  | 77 |
|  | 1.2 | COc1cc(-c2cc(C(O)C3CC3)n3ncnc(N)c23)ccc1CO (single isomer, unassigned; ent-4) [Example 42, ent-4-Amino-5-[4-(hydroxymethyl)-3-methoxyphenyl]pyrrolo[2,1-f][1,2,4]triazin-7-yl}(cyclopropyl)methanol (enantiomer 2)] |  | 6.6 |
|  | 2 | COc1cc(-c2cc(C3CCCNC3)n3ncnc(N)c23)cc(F)c1CO (centres unmarked) [Example 30, {4-[4-Amino-7-(piperidin-3-yl)pyrrolo[2,1-f][1,2,4]triazin-5-yl]-2-fluoro-6-methoxyphenyl}-methanol] | 51 |  |
|  | 1.9 | CC(C)c1cc(-c2cc(F)c(CO)c(F)c2)c2c(N)ncnn12 [Example 43, [4-(4-Amino-7-isopropylpyrrolo[2,1-f][1,2,4]triazin-5-yl)-2,6-difluorophenyl]methanol] | 27 |  |
